The target of the test is T1, PRMT5/MEP50 (Homo sapiens, UniProt O14744).
T1 construct: Expressed full-length human Flag-PRMT5/6His-MeP50 protein complex was purified; made in house; host or cells: Spodoptera frugiperda (SF9) insect cells, baculovirus (pDEST8)
Briefly: PRMT5 Biochemical Assay (PRMT5/MEP50 enzyme assay on peptide substrate, 3H-SAM Flashplate). Particulars: Table D-2; read-out: Biochemical IC50.

T1 sequence (O14744 with tags, fused parts or gaps): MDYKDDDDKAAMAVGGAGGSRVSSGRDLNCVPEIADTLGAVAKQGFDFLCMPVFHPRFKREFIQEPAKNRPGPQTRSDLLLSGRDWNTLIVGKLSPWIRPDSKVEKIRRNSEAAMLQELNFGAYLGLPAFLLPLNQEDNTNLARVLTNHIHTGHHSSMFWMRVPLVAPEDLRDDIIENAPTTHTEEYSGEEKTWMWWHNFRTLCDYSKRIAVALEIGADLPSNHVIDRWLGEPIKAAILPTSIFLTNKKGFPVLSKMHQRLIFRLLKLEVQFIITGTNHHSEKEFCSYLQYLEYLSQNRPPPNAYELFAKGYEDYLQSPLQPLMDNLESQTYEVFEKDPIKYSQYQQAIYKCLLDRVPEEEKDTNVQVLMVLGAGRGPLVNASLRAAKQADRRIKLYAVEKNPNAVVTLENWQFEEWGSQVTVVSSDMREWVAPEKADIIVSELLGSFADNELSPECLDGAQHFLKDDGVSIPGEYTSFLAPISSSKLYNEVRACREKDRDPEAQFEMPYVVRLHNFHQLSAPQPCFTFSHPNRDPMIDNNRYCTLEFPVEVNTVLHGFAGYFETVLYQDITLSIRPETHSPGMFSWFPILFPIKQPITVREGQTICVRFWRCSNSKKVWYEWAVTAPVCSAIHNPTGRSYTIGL
T1 sequence (Q9BQA1 with tags, fused parts or gaps partner limits assumed): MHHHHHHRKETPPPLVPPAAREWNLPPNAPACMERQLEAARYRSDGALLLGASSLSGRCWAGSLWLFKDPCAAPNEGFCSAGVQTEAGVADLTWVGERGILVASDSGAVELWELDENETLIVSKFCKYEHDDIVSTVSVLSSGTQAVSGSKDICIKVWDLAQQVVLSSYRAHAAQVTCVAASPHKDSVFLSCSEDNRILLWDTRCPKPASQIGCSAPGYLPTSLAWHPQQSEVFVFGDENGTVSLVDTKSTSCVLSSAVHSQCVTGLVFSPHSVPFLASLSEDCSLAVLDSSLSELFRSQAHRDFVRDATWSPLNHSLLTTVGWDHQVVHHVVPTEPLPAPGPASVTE

As a reminder, the IC50 is the point on the concentration scale where inhibition reaches its midpoint. Consider `N#Cc1ccc(-c2cccc(OCC(O)CN3CCc4ccccc4C3)c2)cc1` (stereo not drawn) [Compound D94], for which the IC50 is 101 to 1000 nM. On to `Oc1cccc(-c2cccc(OCC(O)CN3CCc4ccccc4C3)c2)c1` (stereo not drawn) [Compound D95], for which the concentration for half-maximal inhibition (IC50) was 101 to 1000 nM.

For `N#Cc1ccccc1-c1cccc(OCC(O)CN2CCc3ccccc3C2)c1` (stereo not drawn) [Compound D93], the half-maximal inhibitory concentration (IC50) fell in the range of 101 to 1000 nM.
